Reference: patent US8440592B2, “Use of abscisic acid combinations for thinning” (Valent BioSciences Corporation, priority 2007, dated 2013)

Columns and labels:
Cabernet Franc grapes [1] = experiment: Example 1: dipping Cabernet Franc flower clusters at full bloom, berry number and cluster compactness; assay type: in vivo, grape; settings: clusters dipped at full bloom; 10 ppm GA3, 300 ppm ABA or both together; harvested at commercial maturity; n = 10 clusters
Experimental: One cluster was tagged and treated with each of the treatments on each of 10 vines. The clusters were harvested at commercial maturity. Cluster compactness was assessed by counting the number of berries per cluster and measuring the total rachis length of each cluster and then calculating the number of berries per cm of rachis.

Cabernet Franc grapes [2] = experiment: Example 2: dipping Cabernet Franc flower clusters at full bloom, berry number and cluster compactness; assay type: in vivo, grape; settings: clusters dipped at full bloom; 300 ppm ABA, 10 ppm GA3 or 300 ppm ABA mixed with 10 ppm GA3; n = 10 clusters
Experimental: One cluster was tagged and treated with each of the treatments on each of 10 vines. The clusters were harvested at commercial maturity and berry number and cluster compactness were evaluated.

[3] = test system: Pioneer McIntosh apple trees; experiment: Example 4: fruit set of Pioneer McIntosh apple trees after BA and ABA sprays; assay type: in vivo; settings: 75 ppm BA whole-tree spray, 300 ppm ABA on tagged limbs, or sequential BA then ABA, applied at 9 mm fruit size; for % Fruit Set: counted after June drop
Experimental: Pioneer McIntosh apple trees were selected for uniformity of bloom and 2 limbs per tree were tagged and all blossom clusters on the tagged limbs were counted. Treatments were applied to four replicate trees per treatment when the average fruit size was 9 mm. BA at 75 ppm was applied as a dilute solution sprayed on whole trees to the drip point on two of the four trees in each replication. […] The solution was shaken and then allowed to sit for 5 minutes. […] The fourth tree in each block received no spray and served as the control. At the end of the June drop period in July, all fruit on the tagged limbs was counted and recorded.

[4] = test system: European seedless cucumber (var. Flamingo) plants; experiment: Example 6: foliar spray with ABA, abortion of cucumber fruits; assay type: in vivo; settings: ABA 100 ppm sprayed to drip at 20 node growth stage
Experimental: European seedless cucumber (var. Flamingo) plants were grown in a greenhouse.

Empire apple trees = experiment: Example 5: crop load and fruit size of Empire apple trees; assay type: in vivo; settings: 100 ppm BA or mixture of 100 ppm BA and 1000 ppm ABA; sprayed at 8 mm fruit size; harvested at maturity
Experimental: Empire apple trees were selected for tree size and uniformity of bloom. Treatments were applied to five replicate trees per treatment when the average fruit size was 8 mm. BA at 100 ppm was applied as a dilute solution sprayed on whole trees to the drip point on five trees. […] Five trees were left untreated to act as control trees. At the end the season when the fruit were mature all the fruit were harvested and the number of fruit per tree and the average fruit size were determined.

Thompson Seedless grape = experiment: Example 3: spraying Thompson Seedless grape vines, bunch compactness at harvest; assay type: in vivo; settings: sprayed twice, at 70% bloom and 100% bloom
Experimental: The applications were made twice, once at 70% bloom and once at 100% bloom. Grape bunch compactness was rated at harvest and the average bunch mass and the average number of berries per gram of rachis was determined.

Row | Compound | Number of berries per cluster (Cabernet Franc grapes [1]) | Number of berries per cm rachis (Cabernet Franc grapes [1]) | Number of berries per cluster (Cabernet Franc grapes [2]) | Number of berries per cm rachis (Cabernet Franc grapes [2]) | Average Fruit Weight [3] | % Fruit Set [3] | Rate of fruit abortion compared to the control plants [4] | Percentage of basal 18 cucumber fruits per plant that aborted ([4]; greenhouse, n = 5 replicate plants) | Average Fruit Weight (Empire apple trees) | Number of Fruit per Tree (Empire apple trees) | Bunch Compactness (Thompson Seedless grape; rating scale 1 = very loose bunch, 5 = very tight bunch, rated at harvest) | Average bunch mass (Thompson Seedless grape; at harvest) | Average number of berries per gram of rachis (Thompson Seedless grape; at harvest)
1 | (S)-5-(1-hydroxy-2,6,6,-trimethyl-4-oxo-2-cyclohexen-1-yl)-3-methyl-(2Z,4E)-pentadienoic acid [ABA] | 53.0 | 1.87 | 54.3 | 2.0 | 146 g | 25% | twice | 68% |  |  |  |  | 
2 | c1ccc(CNc2ncnc3nc[nH]c23)cc1 [BA, benzyladenine] |  |  |  |  | 190 g | 75% |  |  | 123 g | 137 |  |  | 
3 | gibberellic acid [GA3] | 34.8 | 1.33 | 37.6 | 1.35 |  |  |  |  |  |  | 2.3 | 830 g | 5.7
